Data on four molecules can be found in paper PMC3990583 (PLoS ONE, 2014).

The test system of assay [1] is Clk1 and Clk4 over Clk2 and Clk3. On the set-up: method as in PMID 15010457. The following applies: cited from earlier work.
Assay [2] relates to 293T cells. As to the kind of experiment: RT-PCR analysis of alternative pre-mRNA splicing in 293T cells. The format is cell-based, human. The protocol:
Cells (293T, Huh7, and HepG2) were cultured in Dulbecco's modified Eagle's medium (DMEM) containing 10% fetal bovine serum (FBS; Hyclone) supplemented with 1% penicillin and streptomycin. […] The 293T cells were transfected in 6-well plates with siRNAs (Bioneer) at a final concentration of 100 nM using Lipofectamine RNAiMax (Invitrogen) according to the manufacturer's instructions.
(§1) To analyze the effect of compounds on pre-mRNA splicing, 293T, Huh7, and HepG2 cells were treated with the indicated concentrations. Total RNAs were extracted using the TRIzol reagent (Invitrogen) followed by cDNA synthesis using the Omniscript RT kit (Qiagen) and an oligo-dT primer. PCR was performed at 95°C for 30 s, 55°C for 30 s, and 72°C for 1 min for 35 cycles using GoTaq Green Master Mix (Promega). Quantitative real-time PCR analysis was performed using the BioRad IQ SYBR Green Supermix. All gene expression experiments were performed independently at least twice.
(§2) The cDNA was synthesized and further processed for exon array as described in Materials and Methods. All experiments were performed three times, and representative heat maps of selected transcripts from the exon arrays are shown. Selected exons for each mRNA are highlighted with black underlines. (B) RT-PCR analysis was performed for the ELL2, SPAST, QRSL1, PRPSAP2, CPEB1, USP38, TRIP4, CTDSPL2, WDFY1 and ZCCHC2 genes with the same RNA used for the exon arrays. The exonic structure of the RT-PCR products and the exonic location of PCR primers are indicated with tandem rectangles and arrowheads, respectively. PCR products were quantified using ImageJ software, and the ratios of skipped product (skipped/total PCR product) were calculated.
Total levels of AKT were also monitored as a control. hnRNP A1 was used as a loading control. (B) Alternatively spliced CK2 α′, ELL2, CPEB1, PRPSAP2, and QRSL1 mRNAs were examined by RT-PCR. PCR products of normal and alternatively spliced isoforms are denoted by black arrowheads. An extra PCR product of the QRSL1 gene appeared in TBB-treated samples and is denoted by an asterisk. All experiments were performed twice, and representative data for each are presented.

The test system of assay [3] is CK2-mediated phosphorylation of AKT at S129. Kind of assay: Western blot of AKT(S129) phosphorylation (CK2-specific site) in 293T cells. In kind it is cell-based, human. The conditions noted are these: 12 hours.
The subject of assay [4] is SR protein phosphorylation. As to the kind of experiment: Western blot of phosphorylated SR proteins (mAb 1H4) in 293T cells. In kind it is cell-based, human. The conditions noted are these: for alteration of SR protein phosphorylation: 100 µM, 12 hour, Figure S5.
Assay [5] addresses Clks (Clk1, Clk2, and Clk3). As to the kind of experiment: In vitro kinase assays, Clk family as a whole. In kind it is biochemical, human. The following applies: range over Clk1, Clk2, Clk3; read-out: IC50 on Clks (all three Clks, Clk1-3).
The target in another assay is SRPKs (SRPK1 and SRPK2). Kind of assay: In vitro kinase assays, SRPK family as a whole. The format is biochemical, human.
The next assay deals with recombinant human SRPK1 (Homo sapiens, UniProt Q96SB4). Kind of assay: In vitro kinase assay (Life Technologies), SRPK1. The format is biochemical. The conditions noted are these: two independent assays.
Chain of recombinant human SRPK1 (Q96SB4 whole entry): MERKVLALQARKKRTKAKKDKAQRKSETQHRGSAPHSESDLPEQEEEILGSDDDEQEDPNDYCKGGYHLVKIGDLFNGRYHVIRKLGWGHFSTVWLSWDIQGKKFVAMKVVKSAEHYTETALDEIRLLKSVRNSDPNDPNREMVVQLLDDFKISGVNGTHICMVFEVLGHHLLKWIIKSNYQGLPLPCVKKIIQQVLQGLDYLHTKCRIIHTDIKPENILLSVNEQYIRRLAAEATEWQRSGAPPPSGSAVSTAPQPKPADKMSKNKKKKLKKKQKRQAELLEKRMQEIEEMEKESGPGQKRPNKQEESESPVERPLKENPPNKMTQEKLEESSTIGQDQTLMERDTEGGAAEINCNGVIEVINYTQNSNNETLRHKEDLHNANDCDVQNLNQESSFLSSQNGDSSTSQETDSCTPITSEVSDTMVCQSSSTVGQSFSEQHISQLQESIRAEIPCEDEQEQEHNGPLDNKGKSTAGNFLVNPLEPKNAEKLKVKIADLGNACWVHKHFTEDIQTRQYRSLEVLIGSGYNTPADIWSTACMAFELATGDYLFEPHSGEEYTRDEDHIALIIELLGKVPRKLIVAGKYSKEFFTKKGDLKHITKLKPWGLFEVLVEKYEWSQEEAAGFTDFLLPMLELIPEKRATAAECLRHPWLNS
For a further assay, the system named is Huh7 cells. As to the kind of experiment: RT-PCR of Bcl-X and RON alternative splicing in Huh7 cells. The following applies: 12 hours. In kind it is cell-based, human. The protocol:
as §1

A further assay addresses recombinant human Clk3 (Homo sapiens, UniProt P49761). As to the kind of experiment: In vitro kinase assay (Life Technologies), Clk3. The format is biochemical.
The subject of another assay is HepG2 cells. Kind of assay: Quantitative real-time PCR of gluconeogenic genes in HepG2 cells. The conditions noted are these: 12 hours.
Assay [6] concerns 293T cells. Kind of assay: Affymetrix exon array, transcriptome-wide splicing in 293T cells. In kind it is cell-based, human. The conditions noted are these: 10 µM, 12 hours. The method, then:
The fragmented and end-labeled single-stranded cDNAs were prepared and hybridized to Affymetrix-GeneChip Human Exon 1.0 ST arrays (Affymetrix). Affymetrix Expression Console Software was used to perform quality assessment. Affymetrix exon array data was analyzed using GeneSpring 12.6 inclusive of GX (Agilent Technologies). Three independent experimental samples were examined.
Transcriptome analysis with the Affymetrix GeneChip Human Exon 1.0 ST Array, which contains multiple probes per exon, allowed us to search for variations at the exon level. […] Further analysis characterized the 8,968 affected exons into 1,555 included exons and 7,413 skipped exons. To validate this observation, we randomly chose 15 exons from those affected by more than 2-fold and examined alterations in alternative splicing using RT-PCR of the same total RNAs used in the exon array experiments. Representative mRNAs containing selected exons are illustrated by heat maps, and all of the selected exons were denoted by black underlines (Figure 2A). […] Different exons are commonly affected differentially by a stimulus or splicing inhibition, depending on cis-acting elements on exon/intron and activities of trans-acting factors.
as §2

The test system of another assay is Clks. As to the kind of experiment: In vitro kinase assays (Millipore), CX-4945 compared with TG-003 on Clks. The format is biochemical, human. The following applies: Figure S6. The method, then:
All experiments were performed twice.

Another assay concerns the target recombinant human SRPK2 (Homo sapiens, UniProt P78362). Kind of assay: In vitro kinase assay (Life Technologies), SRPK2. The conditions noted are these: two independent assays. The format is biochemical.
The test system of assay [7] is 293T cells. As to the kind of experiment: Quantitative real-time PCR of CK2 α′ mRNA levels in 293T cells. The following applies: qPCR, primers to exon 7, Figure S1. The format is cell-based, human. The protocol: as §1
Figure S1. […] Quantitative real-time PCR was performed with total RNA from DMSO- and CX-4945-treated 293T cells. The amount of normal CK2 α’ mRNA was measured using primers corresponding to exon 6, and the total amount of normal CK2 α’ mRNA and the smaller-sized CK2 α’ mRNA was measured using primers corresponding to exon 7. The values for DMSO-treated samples were set to 1, and the relative amounts were calculated. The average and SD values were determined from three independent experiments.

Chain of recombinant human Clk3 (P49761 whole entry): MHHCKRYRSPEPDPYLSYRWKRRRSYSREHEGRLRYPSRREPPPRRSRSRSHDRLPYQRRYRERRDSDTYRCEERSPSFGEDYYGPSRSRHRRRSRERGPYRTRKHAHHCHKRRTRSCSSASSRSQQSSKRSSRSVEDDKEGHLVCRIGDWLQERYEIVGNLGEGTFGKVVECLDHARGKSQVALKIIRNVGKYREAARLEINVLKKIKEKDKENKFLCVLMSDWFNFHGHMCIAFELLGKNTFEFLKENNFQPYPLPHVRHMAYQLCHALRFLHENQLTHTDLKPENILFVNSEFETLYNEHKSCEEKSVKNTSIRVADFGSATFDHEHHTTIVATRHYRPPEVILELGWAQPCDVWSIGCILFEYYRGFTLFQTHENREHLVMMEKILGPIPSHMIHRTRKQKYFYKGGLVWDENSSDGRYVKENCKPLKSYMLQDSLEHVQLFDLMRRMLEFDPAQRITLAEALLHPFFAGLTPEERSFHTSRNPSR
Chain of recombinant human SRPK2 (P78362 whole entry): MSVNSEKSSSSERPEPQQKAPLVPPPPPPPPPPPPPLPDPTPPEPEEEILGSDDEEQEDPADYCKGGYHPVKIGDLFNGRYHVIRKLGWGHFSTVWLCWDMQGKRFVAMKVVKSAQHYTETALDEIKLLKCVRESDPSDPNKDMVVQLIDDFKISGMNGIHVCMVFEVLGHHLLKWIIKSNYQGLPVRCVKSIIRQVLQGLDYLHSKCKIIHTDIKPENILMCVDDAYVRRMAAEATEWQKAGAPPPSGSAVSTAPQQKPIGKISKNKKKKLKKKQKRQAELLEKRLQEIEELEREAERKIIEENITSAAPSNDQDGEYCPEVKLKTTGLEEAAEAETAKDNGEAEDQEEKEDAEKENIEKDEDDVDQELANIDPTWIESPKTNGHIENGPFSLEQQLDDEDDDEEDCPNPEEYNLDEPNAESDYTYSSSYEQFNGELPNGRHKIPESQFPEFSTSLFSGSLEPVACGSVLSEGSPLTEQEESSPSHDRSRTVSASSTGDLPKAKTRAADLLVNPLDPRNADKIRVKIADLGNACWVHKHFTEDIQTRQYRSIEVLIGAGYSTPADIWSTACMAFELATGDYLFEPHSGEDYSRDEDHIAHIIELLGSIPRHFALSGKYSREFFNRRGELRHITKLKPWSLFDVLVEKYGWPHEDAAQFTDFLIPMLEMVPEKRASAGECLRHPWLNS

For the molecule `CCN1/C(=C/C(C)=O)Sc2ccc(OC)cc21` [TG-003], in assay [1], the “preferential efficacy on Clk1 and Clk4 over Clk2 and Clk3” value is given as “at least 5 fold”.
Turning to `O=C(O)/C=C/c1cc(Br)c(Br)c(Br)c1Br` [TBCA, tetrabromocinnamic acid], the “changes in alternative splicing of selected genes (CK2 α′, ELL2, CPEB1, PRPSAP2, QRSL1)” value with 293T cells [2] (100 µM, 12 hours) is given as “negligible effect”. The “CK2-mediated phosphorylation of AKT at S129” value (shortened to “CK2-mediated phosphorylation”) in assay [3] (100 µM) is “efficiently blocked”. For the same molecule, in [4], the “alteration of SR protein phosphorylation” value is given as “did not induce the alteration”.
Regarding `O=C(O)c1ccc2c(c1)nc(Nc1cccc(Cl)c1)c1ccncc12` [CX-4945], the IC50 was 0.003 to 0.09 µM in assay [5]; over 1 µM against SRPKs (SRPK1 and SRPK2); 1.23 µM at recombinant human SRPK1; 0.09 µM on recombinant human Clk3; 1.11 µM on recombinant human SRPK2. Also, in the assay with 293T cells [2] (10 µM, 12 hours, compared with DMSO), the “amount of PCR product corresponding to normal CK2 α′” value was “reduced”. The “splicing of Clk1/Sty pre-mRNA” value in the assay on 293T cells [2] (12 hours, 293T) was “changes in splicing”. In addition, the “time of appearance of new product CK2 α′△ (exon6-skipped)” value with 293T cells [2] (time course following exposure, 293T) is “as early as 2 or 3”. In the assay with Huh7 cells, the “normal alternative splicing of Bcl-X and RON pre-mRNAs” value is “alteration of normal alternative splicing”. For the same molecule, in the assay with HepG2 cells, the “G6Pase and PEPCK gene expression” value is reported as “induced”. Also, the “CK2-mediated phosphorylation” value in assay [3] (10 µM) was “efficiently blocked”. The “included exons among the affected exons” value with 293T cells [6] is reported as 1,555 exons. In addition, the “skipped exons among the affected exons” value in the assay on 293T cells [6] is recorded as 7,413 exons. Further, the “genes affected at the whole-transcript level” value in the assay with 293T cells [6] (82 out of 18,673 genes) came out at 0.44%. Further, the “regulatory efficacy on SR protein phosphorylation compared with TG-003” value in assay [4] (1 µM CX-4945 versus 10 µM TG-003, 1 hour) is given as “stronger than that of TG-003”. The “levels of phosphorylated SRSF4, SRSF6, SRSF5, and SRSF1” value in [4] (1 and 10 µM, 1 hour) is recorded as “considerably decreased”. In addition, the “phosphorylation of SRSF3” value in [4] (1 and 10 µM, 1 hour) is “not affected”. Also, the “upper band of phospho-SRSF6 (hyperphosphorylated SRSF6)” value in assay [4] (1 and 10 µM, 1 hour) is reported as “dramatically increased”. Besides, the “dose dependence of effect on phosphorylation of SR proteins” value in assay [4] (1 versus 10 µM, 1 hour) is given as “dose-dependent”. The “overall efficacies on Clks compared with TG-003” value in the assay on Clks is reported as “much stronger than those of TG-003”. Also, in the assay with 293T cells [7], the “total amount of normal CK2 α′ and smaller-sized CK2 α′ mRNA” value is recorded as “not altered”.
For the molecule `Brc1c(Br)c(Br)c2[nH]nnc2c1Br` [TBB, 4,5,6,7-tetrabromobenzotriazole], in the assay with 293T cells [2] (100 µM, 12 hours), the “changes in alternative splicing of selected genes (CK2 α′, ELL2, CPEB1, PRPSAP2, QRSL1)” value is recorded as “negligible effect” and the “extra PCR product of QRSL1 (cryptic splicing, 3′ part of exon 11)” value is recorded as “induced the appearance of an additional PCR product”. For the same molecule, in assay [3] (100 µM), the “CK2-mediated phosphorylation” value is “efficiently blocked”. In [4], the “alteration of SR protein phosphorylation” value is recorded as “did not induce the alteration”.
